These molecules were tested on HIVIIIb in CCRM-CEM cells (assay: Anti-viral potency in CCRM-CEM cells acutely infected with HIVIIIb, extracellular p24 antigen readout (method of Meek et al.)). Details: CCRM-CEM cells, HIV replication; read-out: IC90 Range.
Type: cell-based, HIV-1
Description: Compounds of formula I were tested for their antiviral potency in several virological assays.
The effect of the compounds on inhibiting the replication of the virus was measured by determining the HIV extracellular p24 antigen concentration using a commercial enzyme immunoassay (obtained from Coulter Corporation, Hialeah, Fla.).
In Table VIII, the following classifications have been employed: • A: inhibits HIV replication at concentration of 100 nM or less. • B: inhibits HIV replication at concentration of between 101 and 1,000 nM. • C: inhibits HIV replication at a concentration of between 1,001 and 10,000 nM. • D: inhibits HIV replication at a concentration of between 10,001 and 40,000 nM. • ND: not tested.

Structure (SMILES)	IC90
CC(C)CN(CC(O)[C@H](Cc1ccccc1)NC(=O)[C@H](CC(N)=O)NC(=O)c1ccc2ccccc2n1)S(=O)(=O)c1ccc(-c2ccccn2)s1 (stereo partly drawn) [Compound 12, (S)-N-1-(1-(S)-Benzyl-2-(syn)-hydroxyl-3-(isobutyl-(5-pyridin-2-yl-thiophene-2-sulfonyl)-amino)-propyl)-2-((quinoline-2-carbonyl)-amino)-succinamide]	< 100 nM
CC(=O)Nc1ccc(S(=O)(=O)N(CC(C)C)CC(O)[C@H](Cc2ccccc2)NC(=O)C(CC(N)=O)C(=O)OCc2ccncc2)cc1 (stereo partly drawn) [Compound 23, N-1-(3-((4-Acetylamino-benzenesulfonyl)-isobutyl-amino)-(1S,2 syn)-1-benzyl-2-hydroxy-propyl)-2-(pyridin-4-yl-methoxycarbonyl)-succinamide]	101 to 1000 nM
CC(C)CN(C[C@@H](O)[C@H](Cc1ccccc1)NC(=O)C(CC(N)=O)C(=O)OCc1ccccn1)S(=O)(=O)c1ccc(F)cc1 (stereo partly drawn) [Compound 26, N-1-(3-((4-Fluoro-benzenesulfonyl)-isobutyl-amino)-(1S,2 syn)-1-benzyl-2-hydroxy-propyl)-2-(pyridin-2-yl-methoxycarbonyl)-succinamide]	101 to 1000 nM
CC(C)CN(CC(O)[C@H](Cc1ccccc1)NC(=O)O[C@@H]1CCOC1)S(=O)(=O)c1ccc(F)cc1 (stereo partly drawn) [Compound 52, 4-Fluoro-N-((2 syn,3S)-2-hydroxy-4-phenyl-3-((R)-tetrahydrofuran-3-yloxycarbonylamino)-butyl)-N-isobutyl-benzenesulfonamide and 4-Fluoro-N-((2 syn,3S)-2-hydroxy-4-phenyl-3-((R)-tetrahydrofuran-3-yloxycarbonylamino)-butyl)-N-isobutyl-benzenesulfonamide]	101 to 1000 nM

Same assay, conditions: Human immunodeficiency virus 1, read-out: IC90 Range

Structure (SMILES)	IC90
CC(C)CN(C[C@@H](O)[C@H](Cc1ccccc1)NC(=O)OC(C)(C)C)S(=O)(=O)c1ccccc1F [Compound 47]	1000 to 10000 nM

Same assay, conditions: Human immunodeficiency virus 1; CCRM-CEM cells, HIV replication; read-out: IC90 Range

Structure (SMILES)	IC90
CC(C)CN(C[C@@H](O)[C@H](Cc1ccccc1)NC(=O)O[C@H]1CCOC1)S(=O)(=O)c1ccc(N)cc1 [Compound 168, 4-Amino-N-((2 syn,3S)-2-Hydroxy-4-phenyl-3-((S)-tetrahydrofuran-3-yloxycarbonylamino)-butyl)-N-isobutyl-benzenesulfonamide]	< 100 nM

Each molecule was assayed against HIV-1 protease (Human immunodeficiency virus type 1 group M subtype B, UniProt P04585) (assay: Inhibition constants against HIV-1 protease (method of Pennington et al.)). Details: HIV-1 protease; read-out: Ki value.
Type: biochemical
Source text: We measured the inhibition constants of the compounds listed in Table VII against HIV-1 protease using the above-cited method of Pennington et al.

Structure (SMILES)	Ki
CC(C)CN(CC(O)[C@H](Cc1ccccc1)NC(=O)[C@H](CC(N)=O)NC(=O)c1ccc2ccccc2n1)S(=O)(=O)c1ccc(-c2ccccn2)s1 (stereo partly drawn) [Compound 12, (S)-N-1-(1-(S)-Benzyl-2-(syn)-hydroxyl-3-(isobutyl-(5-pyridin-2-yl-thiophene-2-sulfonyl)-amino)-propyl)-2-((quinoline-2-carbonyl)-amino)-succinamide]	0.1 nM
CC(=O)Nc1ccc(S(=O)(=O)N(CC(C)C)CC(O)[C@H](Cc2ccccc2)NC(=O)C(CC(N)=O)C(=O)OCc2ccncc2)cc1 (stereo partly drawn) [Compound 23, N-1-(3-((4-Acetylamino-benzenesulfonyl)-isobutyl-amino)-(1S,2 syn)-1-benzyl-2-hydroxy-propyl)-2-(pyridin-4-yl-methoxycarbonyl)-succinamide]	1.5 nM
CC(C)CN(C[C@@H](O)[C@H](Cc1ccccc1)NC(=O)C(CC(N)=O)C(=O)OCc1ccccn1)S(=O)(=O)c1ccc(F)cc1 (stereo partly drawn) [Compound 26, N-1-(3-((4-Fluoro-benzenesulfonyl)-isobutyl-amino)-(1S,2 syn)-1-benzyl-2-hydroxy-propyl)-2-(pyridin-2-yl-methoxycarbonyl)-succinamide]	0.1 nM
CC(C)CN(C[C@@H](O)[C@H](Cc1ccccc1)NC(=O)OC(C)(C)C)S(=O)(=O)c1ccccc1F [Compound 47]	4 nM
CC(C)CN(CC(O)[C@H](Cc1ccccc1)NC(=O)O[C@@H]1CCOC1)S(=O)(=O)c1ccc(F)cc1 (stereo partly drawn) [Compound 52, 4-Fluoro-N-((2 syn,3S)-2-hydroxy-4-phenyl-3-((R)-tetrahydrofuran-3-yloxycarbonylamino)-butyl)-N-isobutyl-benzenesulfonamide and 4-Fluoro-N-((2 syn,3S)-2-hydroxy-4-phenyl-3-((R)-tetrahydrofuran-3-yloxycarbonylamino)-butyl)-N-isobutyl-benzenesulfonamide]	0.4 nM
CC(C)CN(C[C@@H](O)[C@H](Cc1ccccc1)NC(=O)O[C@H]1CCOC1)S(=O)(=O)c1ccc([N+](=O)[O-])cc1 [Compound 167, N-((2 syn,3S)-2-Hydroxy-4-phenyl-3-((S)-tetrahydrofuran-3-yloxycarbonylamino)-butyl)-N-isobutyl-4-nitro-benzenesulfonamide]	0.45 nM
O=C(N[C@@H](Cc1ccccc1)[C@H](O)CN(CC1CCCC1)S(=O)(=O)c1ccc(O)cc1)O[C@H]1CCOC1 [Compound 169, N-Cyclopentylmethyl-4-hydroxy-N-((2 syn,3S)-2-hydroxy-4-phenyl-3-((S)-tetrahydrofuran-3-yloxycarbonylamino)-butyl)-benzenesulfonamide]	< 0.1 nM
O=C(N[C@@H](Cc1ccccc1)[C@H](O)CN(CC1CCCC1)S(=O)(=O)c1ccc([N+](=O)[O-])cc1)O[C@H]1CCOC1 [Compound 170, N-Cyclopentylmethyl-N-((2 syn,3S)-2-hydroxy-4-phenyl-3-((S)-tetrahydrofuran-3-yloxycarbonylamino)-butyl)-4-nitro-benzensulfonamide]	0.2 nM
Nc1ccc(S(=O)(=O)N(CC2CCCC2)C[C@@H](O)[C@H](Cc2ccccc2)NC(=O)O[C@H]2CCOC2)cc1 [Compound 171, 4-Amino-N-cyclopentylmethyl-N-((2 syn,3S)-2-hydroxy-4-phenyl-3-((S)-tetrahydrofuran-3-yloxycarbonylamino)-butyl)-benzenesulfonamide]	0.2 nM
O=C(N[C@@H](Cc1ccccc1)[C@H](O)CN(CC1CCCC1)S(=O)(=O)c1ccc([N+](=O)[O-])cc1[N+](=O)[O-])O[C@H]1CCOC1 [Compound 172]	21 nM
Nc1ccc(S(=O)(=O)N(CC2CCCC2)C[C@@H](O)[C@H](Cc2ccccc2)NC(=O)O[C@H]2CCOC2)c(N)c1 [Compound 173, 2,4-Diamino-N-cyclopentylmethyl-N-((2 syn,3S)-2-hydroxy-4-phenyl-3-((S)-tetrahydrofuran-3-yloxycarbonylamino)-butyl)-benzenesulfonamide]	0.6 nM
CC(C)CN(C[C@@H](O)[C@H](Cc1ccccc1)NC(=O)O[C@H]1CCOC1)S(=O)(=O)c1ccc(OCc2ccccc2)cc1 [Compound 174]	10 nM
CC(C)CN(C[C@@H](O)[C@H](Cc1ccccc1)NC(=O)O[C@H]1CCOC1)S(=O)(=O)c1ccc(O)cc1 [Compound 175]	0.1 nM
COc1ccc(COC(=O)N[C@@H](Cc2ccccc2)[C@H](O)CN(CC2CCCC2)S(=O)(=O)c2ccc(OC)cc2)cc1 [Compound 177]	< 0.1 nM
COc1ccc(S(=O)(=O)N(CC2CCCC2)C[C@@H](O)[C@H](Cc2ccccc2)NC(=O)OCc2cccc(OC)c2)cc1 [Compound 178]	0.1 nM
COc1ccc(S(=O)(=O)N(CC2CCCC2)C[C@@H](O)[C@H](Cc2ccccc2)NC(=O)OCc2ccccc2OC)cc1 [Compound 179]	0.4 nM
O=C(N[C@@H](Cc1ccccc1)[C@H](O)CN(CC1CCCC1)S(=O)(=O)c1ccc2c(c1)CCO2)O[C@H]1CCOC1 [Compound 180]	< 0.1 nM
N#Cc1ccc(S(=O)(=O)N(CC2CCCC2)C[C@@H](O)[C@H](Cc2ccccc2)NC(=O)O[C@H]2CCOC2)cc1 [Compound 181]	0.3 nM
O=C(N[C@@H](Cc1ccccc1)[C@H](O)CN(CC1CCCC1)S(=O)(=O)c1ccc(F)cc1)O[C@H]1CCOC1 [Compound 182, N-Cyclopentylmethyl-4-fluoro-N-((2 syn,3S)-2-hydroxy-4-phenyl-3-((S)-tetrahydrofuran-3-yloxycarbonylamino)-butyl)-benzenesulfonamide]	0.2 nM

Structure (SMILES)	Ki
O=C(N[C@@H](Cc1ccccc1)[C@H](O)CN(CC1CCCC1)S(=O)(=O)c1ccc(Cl)c(Cl)c1)O[C@H]1CCOC1 [Compound 183, 3,4-Dichloro-N-cyclopentylmethyl-N-((2 syn,3S)-2-hydroxy-4-phenyl-3-((S)-tetrahydrofuran-3-yloxycarbonylamino)-butyl)-benzenesulfonamide]	0.1 nM
COc1ccc(S(=O)(=O)N(CC2CCCC2)C[C@@H](O)[C@H](Cc2ccccc2)NC(=O)O[C@@H]2CCN(C(=O)OC(C)(C)C)C2)cc1 [Compound 184]	5 nM
COc1ccc(S(=O)(=O)N(CC2CCCC2)CC(O)C(Cc2ccccc2)NC(=O)OC2CCNC2)cc1 (centres unmarked) [Compound 185]	3.5 nM
CCC(C)C(NC(=O)OCc1ccccc1)C(=O)NC(Cc1ccccc1)C(O)CN(Cc1ccccc1)S(=O)(=O)Cc1ccccc1 (centres unmarked) [Compound 186]	140 nM
CC(=O)Nc1ccc(S(=O)(=O)N(CC(C)C)C[C@@H](O)[C@H](Cc2ccccc2)NC(=O)C(C)(C)NC(=O)OC(C)(C)C)cc1 [Compound 189]	5500 nM
CC(=O)Nc1ccc(S(=O)(=O)N(CC(C)C)CC(O)C(Cc2ccccc2)NC(=O)C(CC(N)=O)NC(=O)c2ccc3ccccc3n2)cc1 (centres unmarked) [Compound 193]	400 nM
CC(C)CN(CC(O)C(Cc1ccccc1)NC(=O)C(CC(N)=O)NC(=O)c1ccc2ccccc2n1)S(=O)(=O)c1ccc(-c2ccon2)s1 (centres unmarked) [Compound 194]	350 nM
COc1ccc(S(=O)(=O)N(CC2CCCC2)C[C@@H](O)[C@H](CC2CCCCC2)NC(=O)O[C@H]2CCOC2)cc1 [Compound 195, N-((2 syn,3S)-4-Cyclohexyl-2-hydroxy-3-((S)-tetrahydrofuran-3-yloxycarbonylamino)-butyl)-N-cyclopentylmethyl-4-methoxy-benzenesulfonamide]	0.2 nM
CC(=O)Nc1ccc(S(=O)(=O)N(CC(C)C)C[C@@H](O)[C@H](Cc2ccccc2)NC(=O)C(=O)C(C)(C)C)cc1 [Compound 1001]	220 nM
CC(=O)Nc1ccc(S(=O)(=O)N(CC(C)C)C[C@@H](O)[C@H](Cc2ccccc2)NC(=O)C[C@H]2CNC(=O)C2)cc1 [Compound 1002]	28 nM
CC(C)CN(C[C@@H](O)[C@H](Cc1ccccc1)NC(=O)O[C@H]1CCOC1)S(=O)(=O)c1cccnc1 [Compound 1003]	8 nM
COc1ccc(S(=O)(=O)N(C)C[C@@H](O)[C@H](Cc2ccccc2)NC(=O)O[C@H]2CCOC2)cc1 [Compound 1005]	250 nM
C=C(C)CN(C[C@@H](O)[C@H](Cc1ccccc1)NC(=O)O[C@H]1CCOC1)S(=O)(=O)c1ccc(OC)cc1 [Compound 1006]	8 nM
COc1ccc(S(=O)(=O)N(CC2CCCO2)CC(O)C(Cc2ccccc2)NC(=O)OC2CCOC2)cc1 (centres unmarked) [Compound 1007]	42 nM
COc1ccc(S(=O)(=O)N(C[C@@H](O)[C@H](Cc2ccccc2)NC(=O)O[C@H]2CCOC2)CC(C)(C)CO)cc1 [Compound 1009]	20 nM
COc1ccc(S(=O)(=O)N(C[C@@H](O)[C@H](Cc2ccccc2)NC(=O)O[C@H]2CCOC2)CC(C)(C)O)cc1 [Compound 1010]	20 nM
COc1ccc(S(=O)(=O)N(C[C@@H](O)[C@H](Cc2ccccc2)NC(=O)O[C@H]2CCOC2)C2CCNCC2)cc1 [Compound 1011]	1500 nM
COc1ccc(S(=O)(=O)N(C[C@@H](O)[C@H](Cc2ccccc2)NC(=O)O[C@H]2CCOC2)CN2CCCCC2)cc1 [Compound 1013]	1500 nM
COc1ccc(S(=O)(=O)N(CCN2CCCCC2)C[C@@H](O)[C@H](Cc2ccccc2)NC(=O)O[C@H]2CCOC2)cc1 [Compound 1014]	9300 nM

Source: patent US20080293727A1, “Novel sulfonamide inhibitors of aspartyl protease” (priority 1992, published 2008)
